In assay [1] the target is T1, P. falciparum cytoplasmic isoleucyl-tRNA synthetase (PfcIRS) (Plasmodium falciparum, UniProt Q8IDZ9).
T1 construct: gene PF3D7_1332900; full-length PfcIRS (1-1273), C-terminal TEV-cleavable His10-FLAG tag removed, Sf9 expressed
The assay can be described thus: AMP-Glo enzymatic assay with recombinant PfcIRS. It counts as biochemical.

In a further assay the test system is T2, P. falciparum 3D7.
T2 construct: 3D7
The assay can be described thus: microbe, parasite or virus in culture. More on the design: species or system P. falciparum in human erythrocytes; asexual blood-stage growth inhibition, synchronized ring-stage parasites, SYBR Green I fluorescence. Particulars: Plasmodium falciparum, 3D7, Erythrocyte, 72 h; initial laboratory strain experiment (Table S1); read-out: P. falciparum asexual blood stage activity (IC50 uM) / 3D7. The procedure: (§1) Compound dose-response assays were performed in flat-bottom 96-well plates. Tightly synchronized ring-stage parasites were adjusted to 1% parasitemia at 1% hematocrit and exposed to a twofold serial dilution of the compounds plated using a Tecan D300e digital dispenser. As controls, the assay plate included untreated parasites and parasites treated with 700 nM DHA only. After 72 h of incubation, parasite growth was measured by lysing the cells with a 2 × lysis buffer containing 10 mM Tris-HCl, 5 mM EDTA, 0.1% (wt/vol) saponin, and 1% (vol/vol) Triton X-100, supplemented with 2 × SYBR Green I (Molecular Probes). Fluorescence was recorded using a FluorStar Omega v5.11 plate reader. IC50 values were determined using GraphPad Prism v9, and statistical significance was assessed with a two-sided Mann-Whitney U test. Each assay was conducted in technical duplicate, with a minimum of three biological replicates, as described in the figure legends. P. falciparum parasites were cultured with fresh human erythrocytes at 3% hematocrit in RPMI 1640 medium (Gibco), supplemented with 0.5% Albumax II (Gibco), 25 mM HEPES (Sigma), 1× GlutaMAX (Gibco), and 25 μg/mL gentamicin (Gibco). The following parasite strains were used: 3D7, Dd2 (MR4, MRA-156, T. Wellems), GB4 (MR4, MRA-925, T. Wellems), UG659 (P. Rosenthal), Cam/PH0212C (R. Fairhurst), and Cam3.II/ PH0306-C (R. Fairhurst). The cultures were maintained under a controlled tri-gas atmosphere of 1% O2, 3% CO2, and 96% N2. Human erythrocytes were ethically sourced from healthy, anonymous donors through the Scottish National Blood Transfusion Service (SNBTS) or the National Health Services Blood and Transplant (NHSBT). The use of red blood cells was with approval from the University of Dundee Schools of Medicine and Life Sciences Research Ethics Committee, and the NHS Cambridgeshire Research Ethics Committee and Wellcome Sanger Institute Human Materials and Data Management Committee. Half-maximal growth inhibition concentrations were determined for the nine query compounds against chloroquine-sensitive (3D7) and multidrug-resistant (Dd2) parasites (Fig. 1B; Table S1). Compounds were further assessed against a panel of geographically diverse parasite strains, including two multidrug-resistant Cambodian isolates (resistant to artemisinin, chloroquine, and pyrimethamine) and strains from Uganda (UG659) and Ghana (GB4). […] However, a reduction in sensitivity to TCMDC-134122 was noted across all strains when compared to Dd2.

In another assay the test system is T3, P. falciparum Dd2.
T3 construct: Dd2
The assay can be described thus: microbe, parasite or virus in culture. More on the design: species or system P. falciparum in human erythrocytes; asexual blood-stage growth inhibition, synchronized ring-stage parasites, SYBR Green I fluorescence. Particulars: Plasmodium falciparum, DD2, Erythrocyte, 72 h. The procedure: as §1

Assay [2] concerns T4, Plasmodium falciparum CAM (PH0212C).
T4 construct: Cam/PH0212C
The assay can be described thus: microbe, parasite or virus in culture. More on the design: species or system P. falciparum in human erythrocytes; asexual blood-stage growth inhibition, synchronized ring-stage parasites, SYBR Green I fluorescence. Particulars: Erythrocyte, 72 h, read-out: P. falciparum asexual blood stage activity (IC50 uM) / CAM (PH0212C) / IC50. The procedure:
as §1

Assay [3] concerns T5, Plasmodium falciparum Cam3.II.
T5 construct: Cam3.II
The assay can be described thus: microbe, parasite or virus in culture. On the set-up: species or system P. falciparum in human erythrocytes; asexual blood-stage growth inhibition, synchronized ring-stage parasites, SYBR Green I fluorescence. Particulars: Erythrocyte, 72 h, read-out: P. falciparum asexual blood stage activity (IC50 uM) / Cam3.II / IC50. The procedure: as §1

Assay [4] has as its system T6, Plasmodium falciparum GB4.
T6 construct: GB4
The assay can be described thus: microbe, parasite or virus in culture. Particulars: Erythrocyte, 72 h, read-out: P. falciparum asexual blood stage activity (IC50 uM) / GB4 / IC50. On the set-up: species or system P. falciparum in human erythrocytes; asexual blood-stage growth inhibition, synchronized ring-stage parasites, SYBR Green I fluorescence. The procedure:
as §1

Assay [5] deals with T7, Plasmodium falciparum UG654 (UG659 in methods).
T7 construct: UG659
The assay can be described thus: microbe, parasite or virus in culture. Particulars: Erythrocyte, 72 h, read-out: P. falciparum asexual blood stage activity (IC50 uM) / UG654 / IC50. On the set-up: species or system P. falciparum in human erythrocytes; asexual blood-stage growth inhibition, synchronized ring-stage parasites, SYBR Green I fluorescence. On the procedure:
as §1

Setting [6] is: initial laboratory strain experiment (Table S1), read-out: P. falciparum asexual blood stage activity (IC50 uM) / Dd2.
The mark [7] stands for this setting: strain panel experiment (Table S2), read-out: P. falciparum asexual blood stage activity (IC50 uM) / Dd2 / IC50.

Where two headings read alike, the source gives them in different places.

T1 sequence (Q8IDZ9 entry or part of it): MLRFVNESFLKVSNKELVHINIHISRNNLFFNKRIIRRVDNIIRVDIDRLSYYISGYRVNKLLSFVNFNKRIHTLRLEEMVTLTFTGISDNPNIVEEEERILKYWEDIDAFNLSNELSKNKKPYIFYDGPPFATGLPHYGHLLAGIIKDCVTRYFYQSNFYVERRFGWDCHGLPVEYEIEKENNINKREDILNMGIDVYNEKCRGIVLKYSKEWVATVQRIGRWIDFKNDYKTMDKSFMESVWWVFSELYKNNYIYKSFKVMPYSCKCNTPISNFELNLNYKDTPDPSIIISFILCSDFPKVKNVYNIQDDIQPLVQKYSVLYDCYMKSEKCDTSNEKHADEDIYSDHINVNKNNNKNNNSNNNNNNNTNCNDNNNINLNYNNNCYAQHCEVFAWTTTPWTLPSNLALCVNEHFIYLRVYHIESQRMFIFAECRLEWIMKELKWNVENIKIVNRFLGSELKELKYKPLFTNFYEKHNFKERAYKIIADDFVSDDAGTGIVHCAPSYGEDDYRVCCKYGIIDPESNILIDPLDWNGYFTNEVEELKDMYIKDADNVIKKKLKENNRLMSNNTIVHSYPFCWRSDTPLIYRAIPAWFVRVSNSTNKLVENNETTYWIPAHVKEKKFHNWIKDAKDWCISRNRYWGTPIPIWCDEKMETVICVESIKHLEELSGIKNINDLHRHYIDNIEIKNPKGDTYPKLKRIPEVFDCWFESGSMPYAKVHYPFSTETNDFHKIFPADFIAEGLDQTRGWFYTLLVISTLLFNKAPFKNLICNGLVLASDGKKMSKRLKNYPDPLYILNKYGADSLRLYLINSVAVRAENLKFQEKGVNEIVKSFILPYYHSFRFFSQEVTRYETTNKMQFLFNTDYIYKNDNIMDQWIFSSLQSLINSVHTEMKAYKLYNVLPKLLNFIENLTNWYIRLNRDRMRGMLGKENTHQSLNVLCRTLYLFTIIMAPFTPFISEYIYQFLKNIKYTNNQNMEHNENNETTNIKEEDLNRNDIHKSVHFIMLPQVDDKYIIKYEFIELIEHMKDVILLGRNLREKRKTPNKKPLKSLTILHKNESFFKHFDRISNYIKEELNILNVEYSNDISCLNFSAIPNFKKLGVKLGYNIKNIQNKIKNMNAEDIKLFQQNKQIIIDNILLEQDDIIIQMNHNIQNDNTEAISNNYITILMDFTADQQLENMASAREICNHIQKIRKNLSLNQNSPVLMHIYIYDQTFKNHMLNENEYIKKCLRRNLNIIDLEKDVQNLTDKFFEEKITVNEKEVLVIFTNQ

`c1ccn2c(Sc3ncnc4sccc34)ncc2c1` [TCMDC-124602]: the IC50 in assay [1] is 6590 nM; in the assay with P. falciparum 3D7 it was 0.502 µM; in the assay with P. falciparum Dd2 (setting [6]) it was 0.45 µM; in the assay with P. falciparum Dd2 (setting [7]), 0.288 µM; in assay [2] it was 0.313 µM; in assay [3], 0.316 µM. Also, the results for the IC50 in assay [4] and in assay [5] were 0.651 µM and 0.354 µM, respectively.
Consider `CCOc1ccc2nc(NC(=O)c3csnn3)sc2c1` [TCMDC-125075], for which the IC50 was 0.144 µM with P. falciparum 3D7; 0.206 µM with P. falciparum Dd2 (setting [6]); 0.192 µM in the assay with P. falciparum Dd2 (setting [7]); 0.195 µM in assay [2]; 0.115 µM in assay [3]; 0.16 µM in assay [4]. Besides, in assay [5], the IC50 amounted to 0.178 µM.
Take `Cc1cccc2[nH]c(-c3cccc(-c4cccc(NC(=O)CCc5c[nH]cn5)c4)c3)nc12` [TCMDC-132158]: the IC50 in the assay with P. falciparum 3D7 was found to be 0.616 µM; in the assay on P. falciparum Dd2 (setting [6]), 0.609 µM; with P. falciparum Dd2 (setting [7]), 0.932 µM; in assay [2], 0.654 µM; in assay [3] it was 0.757 µM; in assay [4], 1.72 µM. The IC50 in assay [5] worked out at 1.82 µM.
Turning to `Cc1cccc(C)c1CNc1cccc(-c2nc(C)c(C)[nH]2)c1` [TCMDC-133434], the IC50 in the assay with P. falciparum 3D7 amounted to 0.89 µM; with P. falciparum Dd2 (setting [6]), 0.851 µM; with P. falciparum Dd2 (setting [7]) it was 1.74 µM; in assay [2], 1.33 µM; in assay [3], 1.21 µM; in assay [4], 0.924 µM. In addition, the IC50 in assay [5] was found to be 1.22 µM.
For `COc1ccc(-n2ncc(C(=O)N3CCC4(C3)C(=O)N(c3ccccc3)c3ccccc34)c2C)cc1` (stereo not shown) [TCMDC-134122], the IC50 with P. falciparum 3D7 was determined as 0.572 µM; with P. falciparum Dd2 (setting [6]), 0.216 µM; in the assay with P. falciparum Dd2 (setting [7]) it was 0.394 µM; in assay [2], 1.25 µM; in assay [3], 1.78 µM; in assay [4], 1.67 µM. Besides, the IC50 in assay [5] came out at 1.17 µM.
As for `Cc1cccc2[nH]c(-c3ccc(-c4cccc(NC(=O)C(C)CN5CCN(C)CC5)c4)cc3)nc12` (stereo not shown) [TCMDC-137144], the IC50 with P. falciparum 3D7 was found to be 0.912 µM; in the assay with P. falciparum Dd2 (setting [6]) it was 1.4 µM; in the assay with P. falciparum Dd2 (setting [7]), 1.39 µM; in assay [2], 1.2 µM; in assay [3], 1.39 µM; in assay [4], 1.94 µM. For the same compound, the IC50 in assay [5] was found to be 2.18 µM.
`COc1cc(-c2[nH]c(C(C)(C)CN)nc2-c2ccncc2)ccc1Br` [TCMDC-140674]: the IC50 with P. falciparum 3D7 was 0.688 µM; in the assay on P. falciparum Dd2 (setting [6]) it was 0.244 µM; with P. falciparum Dd2 (setting [7]) it was 0.341 µM; in assay [2], 0.501 µM; in assay [3], 0.532 µM; in assay [4], 1.85 µM. Besides, in assay [5], the IC50 is 1.07 µM.
Consider `CC(C)(CN)c1cc(-c2ccc(Cl)c(O)c2)c(-c2ccncc2)o1` [TCMDC-141334], for which the IC50 was found to be 0.446 µM in the assay on P. falciparum 3D7; 0.414 µM in the assay on P. falciparum Dd2 (setting [6]); 0.485 µM in the assay with P. falciparum Dd2 (setting [7]); 0.676 µM in assay [2]; 0.644 µM in assay [3]; 0.974 µM in assay [4]. For the same compound, in assay [5], the IC50 came out at 0.537 µM.
As to `CC(C)(C)c1cc(Cl)cc(C(=O)Nc2cc([N+](=O)[O-])ccc2Cl)c1O` [TCMDC-142214], the IC50 in the assay on P. falciparum 3D7 came out at 3.65 µM; in the assay on P. falciparum Dd2 (setting [6]) it was 3.17 µM; in the assay on P. falciparum Dd2 (setting [7]), 2.88 µM; in assay [2], 3.8 µM; in assay [3], 2.78 µM; in assay [4] it was 3.08 µM. Also, the IC50 in assay [5] was determined as 3.07 µM.
